The values below come from patent US6492428B1, “Compounds having MIF antagonist activity” (The Picower Institute for Medical Research, priority 2000, dated 2002).

The term IC50 denotes the concentration that inhibits the measured activity by half.

“Also recorded” adds a separate entry of the source. Like-named read-outs stand apart in the source and are kept apart here.

Assay [1] addresses T1, human MIF (Homo sapiens, UniProt P14174).
T1 construct: made in house; host or cells: E. coli
T1 sequence (P14174 2-115 limits assumed): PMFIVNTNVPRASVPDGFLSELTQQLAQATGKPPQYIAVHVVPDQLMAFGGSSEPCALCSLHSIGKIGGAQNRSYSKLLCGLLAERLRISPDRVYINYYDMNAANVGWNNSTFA
The assay can be described thus: MIF dopachrome tautomerase enzyme inhibition assay. In kind it is biochemical. To be noted: for MIF enzyme inhibition activity (in words): dopachrome tautomerase assay; for IC50: MIF 0.7 μg/ml treated 5 minutes, dopachrome methyl ester (1) substrate; for effect on MIF enzymatic activity at doses equimolar to MIF monomer: higher MIF concentrations (approximately 0.1 mg/ml and above); for inhibition at 200 µM: read-out: % inhibition at 200 μM.

For the next assay, the system named is L6 rat myoblasts. Put plainly: Fructose-2,6-bisphosphate (F2,6BP) induction assay. To be noted: for induction of F2,6BP production (in words): MIF conjugated with compound, 10 ng/ml; for F2,6BP production: murine MIF 10 ng/ml, untreated or pretreated (conjugated) with compound, control=100%. The assay is classed as cell-based.
For the next assay, the target named is recombinant mouse MIF (Mus musculus, UniProt P34884). The assay can be described thus: Tautomerase enzyme inactivation of murine MIF before the bioassay.
Assay [2] deals with T1, human MIF. The assay can be described thus: MIF tautomerase inhibition in the presence of fetal bovine serum. The assay is classed as biochemical.
Assay [3] has as its target T1, human MIF. Put plainly: Covalent enzyme modification (SDS-PAGE, MALDI MS, dialysis/gel filtration). (Size exclusion chromatography separates by hydrodynamic size, large species first.)
In a further assay the test system is NIH/3T3 cells. The assay can be described thus: MIF-induced arachidonic acid release. The assay is classed as cell-based. To be noted: cells labeled with 1 μM [14C]-arachidonic acid. As for the experimental part: NIH/3T3 cells were labeled with 1 μM [^14C]-arachidonic acid. After overnight culture, the cells were washed extensively with PBS and then the appropriate samples of MIF or MIF-NAPQI (4) conjugate were added in duplicate. The release of arachidonic acid into the culture medium was then measured.
The effect of MIF-NAPQI (4) conjugate on arachidonic acid release was tested by adding equivalent amounts of either MIF or MIF-NAPQI (4) conjugate to NIH3/3T3 cell cultures that had been pre-equilibrated with radioactive arachidonate, followed by the measurement of arachidonic acid release by scintillation counting. Briefly, NIH/3T3 fibroblasts were labeled with 1 μM [^14C]-arachidonic acid. After overnight culture, the cells were washed extensively with PBS, and the appropriate samples of MIF or MIF-NAPQI (4) conjugate were added in duplicate. The release of arachidonic acid into medium was then measured as described previously (Mitchell et al., J. Biol. Chem., 274:18100-18106, 1999).

The test system of a further assay is anti-MIF antibodies. The assay can be described thus: Cross-reactivity with anti-MIF antibodies (ELISA). The assay is classed as binding. To be noted: for recognition by anti-MIF antibodies (in words): MIF incubated with NAPQI (4) versus unmodified MIF. Here is the method: FIG. 7 illustrates the loss of immunological crossreactivity with anti-MIF antibodies following incubation of MIF with NAPQI (4).
(iii) Cross-reactivity with anti-MIF antibodies. […] Without being bound by mechanism, and in view of the lack of bioactivity of the MIF-NAPQI (4) conjugate in the above arachidonic acid release and F2,6BP induction assays, it is likely that NAPQI (4) conjugation induces distortion of the MIF peptide conformation. This distortion also renders the MIF-NAPQI (a) (4) conjugate non-crossreactive with anti-MIF Mab.
The presence of such structural changes was further explored by characterizing the binding of additional MIF-specific antibodies (Picower Institute clones XIV. 14.3, III.D.9 and XIV. 15.5, which differ in their epitope recognition and activity to inhibit biologically active MIF), using a standard ELISA technique. In a standardized sandwich ELISA specific for MIF Meinhardt et al., Endocrinology, 137:5090-5095, 1996), an equivalent amount of MIF-NAPQI (4) conjugate (as indicated by protein concentration) was recognized 7-fold less than purified recombinant MIF that had not been exposed to NAPQI (4) (FIG. 7). Again, without being bound by mechanism, this loss of cross-reactivity of MIF-NAPQI (4) was most likely due to remote structural changes in MIF induced by covalent attachment of NAPQI (4). These structural changes might, in turn, account for the lack of bioactivities of MIF-NAPQI (4) and MIF-N-acetyl-3-hydroxy-p-benzoquinone imine (6) conjugates in the F2,6BP induction assay, and for the lack of bioactivity of MIF-NAPQI (4) conjugate in the arachidonic acid release assay.
On the technique in general: ELISA stands for enzyme-linked immunosorbent assay.

On to `O=C(O)/C=C/c1ccc(O)c(O)c1` [Compound 15], for which the “MIF enzyme inhibition activity (in words)” value on human MIF [1] is “little, if any”.
On human MIF [1], `CC(=O)Nc1ccc(O)cc1` [Compound 3, acetaminophen, reference compound] displayed an IC50 of 10000 µM.
In the case of “iodoacetamide [Compound 17, reference compound]”, the “% inhibition at 500 μM” value at human MIF [1] (500 μM compound, MIF 0.7 μg/ml, 5 minutes) is recorded as 0% inhibition at 500 μM. In addition, the “MIF enzyme inhibition activity (in words)” value at human MIF [1] is “No inhibitory activity”.
As to `CCN1C(=O)C=CC1=O` [Compound 18, N-ethylmaleimide, reference compound], the “MIF enzyme inhibition activity (in words)” value on human MIF [1] is on record as “No inhibitory activity”. In addition, the inhibition at 500 µM at human MIF [1] (read-out: % inhibition at 500 μM) is 0%.
In turn, `CC(=O)N=C1C(C)=CC(=O)C=C1C` [Compound 9] registered a 50% inhibitory concentration (IC50) on human MIF [1] of 200 µM.
Consider `CC(=O)N=C1C=CC(=O)C(O)=C1` [Compound 6, N-acetyl-3-hydroxy-p-benzoquinone imine], for which, in the assay on L6 rat myoblasts, the “induction of F2,6BP production (in words)” value is “fail to induce” and the “F2,6BP production” value was 105 % of control. Moreover, on human MIF [1], the half-inhibitory concentration (IC50) amounted to 0.7 µM, the “MIF enzyme inhibition activity (in words)” value is “potent inhibitors; also recorded: sub-micromolar” and the “effect on MIF enzymatic activity at doses equimolar to MIF monomer” value was “virtually eliminated”. For the same molecule, the enzyme activity lost at human MIF [1] (MIF 2.8 μM (0.1 mg/ml, 8.4 μM monomer), compound at 7 μM (0.83 equivalents based on monomer)) worked out at 93%. Also, the “enzyme activity lost (in words)” value at human MIF [1] (MIF 0.1 mg/ml, 1.7 equivalents/monomer) was “All”. Further, on human MIF [1] (ratio of IC50 values versus compound 5), the “more potent than dihydroquinone-like analog 5” value is on record as “more than 715 fold”.
As for `O=C(O)c1ccc(O)c(O)c1` [Compound 13], at human MIF [1], the “MIF enzyme inhibition activity (in words)” value was “little, if any” and the inhibition at 200 µM amounted to 24%.
For the molecule `O=C(O)C1=CC(=O)C(=O)C=C1` [Compound 14], on human MIF [1], inhibition was half-maximal at 4 µM (IC50).
As to `O=C(O)/C=C/C1=CC(=O)C(=O)C=C1` [Compound 16], on human MIF [1], the IC50 is 0.3 µM, the “MIF enzyme inhibition activity (in words)” value is “sub-micromolar” and the “effect on MIF enzymatic activity at doses equimolar to MIF monomer” value was “virtually eliminated”.
Take `CC(=O)N=C1C=CC(=O)C=C1` [Compound 4, N-Acetyl-p-benzoquinone imine]: the “inhibition of enzyme activity / enzyme inactivation” value at recombinant mouse MIF (mouse MIF pretreated with 167 μM compound) stood at 96%. Also, the inhibition at 167 µM on recombinant mouse MIF (read-out: inhibition of enzyme activity / enzyme inactivation, mouse MIF pretreated with 167 μM compound) worked out at 98%. In addition, the “fetal bovine serum concentration at which loss in inhibitory activity became detectable” value at human MIF [2] (MIF 0.72 μg/ml, compound 0.2 mM) is 25%. Also, at human MIF [2] (MIF 0.72 μg/ml, compound 0.2 mM, 20 minutes), the “inhibition of MIF in the presence of serum proteins (in words)” value is “occurred even in the presence of serum proteins”. The inhibition at 200 µM on human MIF [2] (read-out: residual inhibitory activity) is 31%. In addition, in the assay on L6 rat myoblasts, the “induction of F2,6BP production (in words)” value is on record as “fail to induce” and the “F2,6BP production” value is recorded as 94 % of control. Besides, on human MIF [1], the “inhibition of enzymatic activity” value turned out to be 69% and the “MIF enzyme inhibition activity (in words)” value is “potent inhibitor”. In addition, on human MIF [1] (read-out: enzyme inhibition), the inhibition at 49.5 µM worked out at 37%, the inhibition at 190 µM is 94% and the inhibition at 500 µM is 100%. Further, the “restoration of enzymatic activity by dialyzing or gel filtering inactivated MIF” value at human MIF [3] (MIF inactivated with compound, data not shown) is “not possible to restore enzymatic activity”. Moreover, the “chemical modification of MIF (in words)” value on human MIF [3] (SDS-PAGE and MALDI mass spectra of treated MIF) is “stable, covalent conjugates”.
`CC(=O)N=C1C=C(C)C(=O)C(C)=C1` [Compound 8] returned an IC50 at human MIF [1] of 120 µM.
Same read-out and setting: next, `COC1=CC(=NC(C)=O)C=CC1=O` [Compound 11]: 25 µM.
Regarding `CC(=O)Nc1ccc(O)c(O)c1` [Compound 5], on human MIF [1], half-maximal inhibition (IC50) required 500 µM and the “MIF enzyme inhibition activity (in words)” value was “little, if any”.
On human MIF [1], `CC(=O)N=C1C=CC(=O)C(C)=C1` [Compound 7] gave an IC50 of 35 µM.
Regarding `COc1cc(NC(C)=O)ccc1O` [Compound 10], the “MIF enzyme inhibition activity (in words)” value on human MIF [1] is given as “little, if any”. The inhibition at 200 µM at human MIF [1] (200 μM compound, MIF 0.7 μg/ml, 5 minutes) is 0%.

B1: MIF-NAPQI (4) conjugate: stable covalent conjugate formed when MIF is treated with NAPQI (4) (conjugate, UniProt P14174 2-115, looked up)
Macrophage migration …: T1 sequence (P14174 2-115 limits assumed)
modifications: covalent NAPQI adduct
With B1, the “induction of arachidonic acid release (in words)” value in the assay on NIH/3T3 cells is “did not induce; also recorded: does not induce”. For the same molecule, the “arachidonic acid released into culture supernatant relative to cultures treated with MIF” value with NIH/3T3 cells (equivalent amounts of MIF or conjugate) was “less than 1/10”. Besides, the “recognition by anti-MIF antibodies (in words)” value with anti-MIF antibodies is given as “fail to recognize”; in the assay with anti-MIF antibodies (listed as MIF-NAPQI conjugate), “significantly less”. In addition, in the assay on anti-MIF antibodies (equivalent amount by protein concentration, standardized sandwich ELISA specific for MIF), the “recognition in sandwich ELISA, less than unmodified recombinant MIF” value stood at 7 fold. In the assay on L6 rat myoblasts, the “induction of F2,6BP production (in words)” value is reported as “failed to induce”.
